From patent publication US6716809B1, “Mage-A3 peptides presented by HLA class molecules” (priority 1997, dated 2004)

Experiments:
Assay type in all cases: cell-based, human
[1] = test system: CD4+ clone 436/B6.37 (B6/37); assay: IFN-γ/TNF production by CD4+ clone B6/37 (clone 37) stimulated with peptide- or protein-pulsed EBV-B cells; settings: for TNF-α and IFN-γ production by clone B6/37: more physiologic or lower peptide concentrations
Protocol: The microcultures that contained proliferating CD4^+ T cells were assessed around 35 days after the start of the culture for their capacity to produce TNF and/or IFN-γ when stimulated with autologous EBV-B cells pulsed with the His-MAGE-A3 protein. Autologous EBV-B cells (500,000/ml) were incubated for 18-20 hours at 37° C. in the presence of 20 μg/ml of His-MAGE-A3 protein, or Ovalbumin (Sigma) as a negative control. EBV-B cells referred to herein are B cells which were immortalized with Epstein Barr virus. The EBV-B cells were prepared according to art-standard procedures. Protein-pulsed EBV-B cells were washed and added at 5,000 per round-bottomed microwell to 2,500 CD4^+ T lymphocytes in 150 μl of complete Iscove's medium supplemented with L-glutamine, L-arginine, L-asparagine, 10% human serum and IL-2 (25 U/ml). After 18-20 hours, supernatants were harvested and assessed for TNF content by testing the cytotoxic effect of the supernatants on TNF-sensitive WEHI 164 clone 13 cells as previously described (Espevik and Nissen-Meyer, J. Immunol. Methods 95:99-105, 1986) in a MTT colorimetric assay as previously described (Hansen et al., J. Immunol. Methods 119:203-210, 1989; Traversari et al., Immunogenetics 35:145-152, 1992). IFN-γ production was measured using an ELISA assay developed in our laboratory (see below) with reagents from Medgenix Diagnostics-Biosource (Fleurus, Belgium). Inhibition with mAbs W6/32 (anti-HLA class I) or 2B6 (anti-HLA-DR) was performed by addition of a 1/20 dilution of ascites during the experiment. Cytokine secretion in response to autologous EBV-B cells pulsed with MAGE-A3 was considered significant if it was at least twofold above the background response of T cells to EBV-B cells pulsed with ovalbumin, and if it exceeded 500 pg of IFN-γ or 50 pg/ml of TNF per ml.
In order to identify the MAGE-A3 peptides recognized by these CD4^+ clones, 16 amino acid peptides, corresponding to parts of the MAGE-A3 protein sequence were synthesized, loaded on the autologous EBV-B cells and tested for recognition (FIGS. 4 and 5). Peptides were synthesized using F-moc for transient NH2-terminal protection and were characterized using mass spectrometry. […] Lyophilized synthetic peptides were dissolved in DMSO (Merck) and used at a final concentration of 500 μM, 50 μM or 5 μg/ml. EBV-B cells (5,000 per round-bottomed microwell) were incubated 2 hours at 37° C., 8% CO2 in the presence of the different peptides, the indicated concentrations representing the peptide concentration during the incubation step. CD4^+ clones were then added at 2,500 cells per well. Assay medium was Iscove's medium supplemented with L-glutamine, L-arginine, L-asparagine, 10% human serum and IL-2 (25 U/ml). After 18-20 hours, supernatants were harvested and assessed for TNF-α and/or IFN-γ secretion. IFN-γ production was measured using an ELISA test (20-4000 pg/ml) developed in the laboratory with reagents from Medgenix Diagnostics-Biosource (Fleurus, Belgium).
To further define the HLA-restriction element utilized by clone B6/37, additional EBV-B cell lines were used for peptide presentation as described above (FIG. 7).
Unlike HLA-class I-restricted peptides, class II-restricted peptides usually vary in length and tolerate extensions at both the amino and carboxy termini, because they are not fixed by their ends in the groove. It is therefore difficult to define precisely the length of the antigenic peptide. Therefore a large number of MAGE-A3 peptides were tested at different concentrations (Tables IV and V). […] 2500 cells of clone 37 were then cocultured for 20 h in round-bottomed microwells with 5000 peptide-pulsed cells. IFN-γ released in the supernatant of the cocultures was measured in an ELISA assay. The experiments were performed in triplicate.

[2] = test system: CD4+ clone 436/B6.34 (B6/34); assay: TNF/IFN-γ production by CD4+ clone B6/34 stimulated with peptide-pulsed EBV-B cells; settings: for TNF-α and IFN-γ production by clone B6/34: more physiologic or lower peptide concentrations
Protocol: In order to identify the MAGE-A3 peptides recognized by these CD4^+ clones, 16 amino acid peptides, corresponding to parts of the MAGE-A3 protein sequence were synthesized, loaded on the autologous EBV-B cells and tested for recognition (FIGS. 4 and 5). Peptides were synthesized using F-moc for transient NH2-terminal protection and were characterized using mass spectrometry. All peptides were >80% pure as indicated by analytical HPLC. Lyophilized synthetic peptides were dissolved in DMSO (Merck) and used at a final concentration of 500 μM, 50 μM or 5 μg/ml. EBV-B cells (5,000 per round-bottomed microwell) were incubated 2 hours at 37° C., 8% CO2 in the presence of the different peptides, the indicated concentrations representing the peptide concentration during the incubation step. CD4^+ clones were then added at 2,500 cells per well. Assay medium was Iscove's medium supplemented with L-glutamine, L-arginine, L-asparagine, 10% human serum and IL-2 (25 U/ml). After 18-20 hours, supernatants were harvested and assessed for TNF-α and/or IFN-γ secretion. IFN-γ production was measured using an ELISA test (20-4000 pg/ml) developed in the laboratory with reagents from Medgenix Diagnostics-Biosource (Fleurus, Belgium).

[3] = test system: B6 clones; assay: Proliferation of B6 clones induced by peptide-pulsed autologous EBV-B cells; settings: autologous EBV-B cells pulsed with peptide (FIG. 6)
[4] = EBV-B cell line BM16, DR13 negative
[5] = EBV-B cell line BOB, DR13 negative
[6] = EBV-B cell line BOLETH, DR13 negative
[7] = EBV-B cell line LB1118, DR13 positive
[8] = EBV-B cell line LB1555, DR13 positive
[9] = EBV-B cell line LB1622, DR13 positive
[10] = EBV-B cell line LKT3, DR13 negative
[11] = EBV-B cell line MZ2, DR13 positive
[12] = EBV-B cell line OLGA, DR13 negative
[13] = EBV-B cell line OMW, DR13 positive
[14] = EBV-B cell line RML, DR13 negative
[15] = EBV-B cell line RSH, DR13 negative
[16] = EBV-B cell line TAB089, DR13 negative
[17] = EBV-B cell line TISI, DR13 negative
[18] = EBV-B cell line VAF, DR13 negative
[19] = EBV-B cell line VET, DR13 negative
[20] = peptide at 500 μM (non-physiologic), autologous EBV-B cells

Row | Substance | activation of clone B6/37 by 16 amino acid peptides [1] | IFN-γ production by clone B6/37 stimulated by peptide [1, 4] [pg/mL] | IFN-γ production by clone B6/37 stimulated by peptide [1, 5] [pg/mL] | IFN-γ production by clone B6/37 stimulated by peptide [1, 6] [pg/mL] | IFN-γ production by clone B6/37 stimulated by peptide [1, 7] [pg/mL] | IFN-γ production by clone B6/37 stimulated by peptide [1, 8] [pg/mL] | IFN-γ production by clone B6/37 stimulated by peptide [1, 9] [pg/mL] | IFN-γ production by clone B6/37 stimulated by peptide [1, 10] [pg/mL] | IFN-γ production by clone B6/37 stimulated by peptide [1, 11] [pg/mL] | IFN-γ production by clone B6/37 stimulated by peptide [1, 12] [pg/mL] | IFN-γ production by clone B6/37 stimulated by peptide [1, 13] [pg/mL] | IFN-γ production by clone B6/37 stimulated by peptide [1, 14] [pg/mL] | IFN-γ production by clone B6/37 stimulated by peptide [1, 15] [pg/mL] | IFN-γ production by clone B6/37 stimulated by peptide [1, 16] [pg/mL] | IFN-γ production by clone B6/37 stimulated by peptide [1, 17] [pg/mL] | IFN-γ production by clone B6/37 stimulated by peptide [1, 18] [pg/mL] | IFN-γ production by clone B6/37 stimulated by peptide [1, 19] [pg/mL] | TNF-α and IFN-γ production by clone B6/37 [1] | activation of clone B6/34 by 16 amino acid peptides [2] | TNF-α and IFN-γ production by clone B6/34 [2] | also measured
1 | ELVHFLLLKYRAREPV (listed as Homo sapiens) [MAGE-A3115-130] | stimulated specifically | 120 | 101 | 67 | 3909 | >4000 | 1349 | 27 | 3096 | 68 | >4000 | 129 | 87 | 55 | 179 | 178 | 135 | stimulated specifically | stimulated specifically | stimulated specifically | proliferation of the B6 clones [3]: able to induce the proliferation
2 | MAGE-A3107-122: 16 amino acid synthetic peptide corresponding to residues 107-122 of the MAGE-A3 protein (AALSRKVAELVHFLLL; UniProt P43357 107-122, looked up, fragment) | unable to activate | – | – | – | – | – | – | – | – | – | – | – | – | – | – | – | – | – | unable to activate | – | –
3 | MAGE-A3159-174: 16 amino acid synthetic peptide corresponding to residues 159-174 of the MAGE-A3 protein (QLVFGIELMEVDPIGH; listed as Homo sapiens) | – | – | – | – | – | – | – | – | – | – | – | – | – | – | – | – | – | – | – | – | activation of clone B6/37 ([1]; peptide at 50 μM): not effective; activation of clone B6/37 [1, 20]: induced activation; activation of clone B6/34 ([2]; peptide at 50 μM): not effective; activation of clone B6/34 [2, 20]: induced activation
4 | RKVAELVHFLLLKYRA (listed as Homo sapiens) [MAGE-A3111-126] | stimulated specifically | 99 | 128 | 77 | 3761 | >4000 | 1731 | 6 | 3429 | 117 | >4000 | 134 | 140 | 52 | 119 | 62 | 105 | stimulated specifically | stimulated specifically | stimulated specifically | proliferation of the B6 clones [3]: able to induce the proliferation
